Test results from US10875874B2, “Ginkgolide B derivative and preparation method and use thereof” (Chengdu Baiyu Ginkgolide Pharmaceuticals Co., Ltd., priority 2015, dated 2020).
≈ marks a conversion by molar mass, not a printed value. Marks after values point to notes of the source that are not given here.

Key:
[1] = Weekly food intake of SHR rats; format: in vivo, rat
Method in brief: (§1)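 Male and female SHR rats (200-250 g, 8/group) dosed intragastrically once daily for 8 weeks with test compounds at 60 or 120 mg/kg/d or captopril 27 mg/kg; Wistar and SHR controls received distilled water. Body weight and food intake observed during treatment.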

[2] = Weekly body weight of SHR rats; format: in vivo, rat
Method in brief: as §1

[3] = test system: spontaneously hypertensive rats (SHR); assay: Caudal artery systolic pressure of spontaneously hypertensive rats, single administration; format: in vivo, rat; details: x ± s, n = 8
Method in brief: (§2)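 SHR rats of both sexes (200–250 g, 8/group) dosed intragastrically with 60 or 120 mg/kg/d, or captopril 27 mg/kg, once daily for 8 weeks; Wistar rats and vehicle SHR served as controls. Tail-cuff systolic pressure taken as the mean of 3 readings, measured before dosing and 30–120 min after the first dose, or 30 min post-dose on days 1–56 for chronic treatment.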

[4] = test system: spontaneously hypertensive rats (SHR); assay: Caudal artery systolic pressure of spontaneously hypertensive rats, 8 weeks of continuous medication; format: in vivo, rat; details: x ± s, n = 8
Method in brief: as §2

[5] = Water solubility test; details: purified water, thermodynamic from solid
Procedure: Measuring method: samples are ground to obtain fine powder, target compounds are quantitatively weighed, the weighed compounds are added into purified water, and the solubility of the compounds is investigated by ultrasonics.

[6] = 60 mg/kg/d intragastric, week 0
[7] = 60 mg/kg/d intragastric, week 1
[8] = 60 mg/kg/d intragastric, week 2
[9] = 60 mg/kg/d intragastric, week 3
[10] = 60 mg/kg/d intragastric, week 4
[11] = 60 mg/kg/d intragastric, week 5
[12] = 60 mg/kg/d intragastric, week 6
[13] = 60 mg/kg/d intragastric, week 7
[14] = 60 mg/kg/d intragastric, week 8
[15] = 120 mg/kg/d intragastric, week 0
[16] = 120 mg/kg/d intragastric, week 1
[17] = 120 mg/kg/d intragastric, week 2
[18] = 120 mg/kg/d intragastric, week 3
[19] = 120 mg/kg/d intragastric, week 4
[20] = 120 mg/kg/d intragastric, week 5
[21] = 120 mg/kg/d intragastric, week 6
[22] = 120 mg/kg/d intragastric, week 7
[23] = 120 mg/kg/d intragastric, week 8

Question: With C[C@@H]1C(=O)O[C@H]2[C@H](O)[C@@]34C5C[C@@H](C(C)(C)C)C36[C@@H](OC(=O)[C@@H]6OC(=O)[C@H](c3ccccc3Cl)N3CCc6sccc6C3)O[C@@]4(C(=O)O5)[C@@]12O (some centres unmarked) [BL] as the molecule, how does the “Average dairy food intake” value [1, 6] read?
Answer: The value was 18.4 g/day.

Question: And the “Average dairy food intake” value [1, 7]?
Answer: The value was 19.4^▴ g/d.

Question: And the “Average dairy food intake” value [1, 8]?
Answer: The value was 20.5^▴▴ g/d.

Question: And the “Average dairy food intake” value [1, 9]?
Answer: Its value is 21.0^▴▴ g/d.

Question: And the “Average dairy food intake” value [1, 10]?
Answer: Its value is 20.9^▴▴ g/d.

Question: What about the “Average dairy food intake” value [1, 11] of the same molecule?
Answer: Its value is 21.9^▴▴ g/d.

Question: And the “Average dairy food intake” value [1, 12]?
Answer: Its value is 23.5^▴▴ g/d.

Question: What about the “Average dairy food intake” value [1, 13] of the same molecule?
Answer: The value was 24.5^▴▴ g/d.

Question: And the “Average dairy food intake” value [1, 14]?
Answer: Its value is 25.1^▴▴ g/d.

Question: And the “Average dairy food intake” value [1, 15]?
Answer: Its value is 18.6 g/day.

Question: What about the “Average dairy food intake” value [1, 16] of the same molecule?
Answer: Its value is 20.0^▴ g/d.

Question: What about the “Average dairy food intake” value [1, 17] of the same molecule?
Answer: Its value is 20.8^▴▴ g/d.

Question: What about the “Average dairy food intake” value [1, 18] of the same molecule?
Answer: Its value is 21.9^▴▴ g/d.

Question: And the “Average dairy food intake” value [1, 19]?
Answer: The value was 22.7^▴▴ g/d.

Question: What about the “Average dairy food intake” value [1, 20] of the same molecule?
Answer: Its value is 23.5^▴▴ g/d.

Question: What about the “Average dairy food intake” value [1, 21] of the same molecule?
Answer: Its value is 24.6^▴▴ g/d.

Question: And the “Average dairy food intake” value [1, 22]?
Answer: Its value is 25.1^▴▴ g/d.

Question: What about the “Average dairy food intake” value [1, 23] of the same molecule?
Answer: Its value is 26.7^▴▴ g/d.

Question: And the Body weight [2, 6]?
Answer: The Body weight was 230.9 g.

Question: What about the Body weight [2, 7] of the same molecule?
Answer: The Body weight was 236.4 g.

Question: What about the Body weight [2, 8] of the same molecule?
Answer: Its Body weight is 243.1 g.

Question: What about the Body weight [2, 9] of the same molecule?
Answer: Its Body weight is 252.8 g.

Question: What about the Body weight [2, 10] of the same molecule?
Answer: The Body weight was 260.9^▴▴ g.

Question: And the Body weight [2, 11]?
Answer: Its Body weight is 265.8^▴▴ g.

Question: What about the Body weight [2, 12] of the same molecule?
Answer: Its Body weight is 270.6^▴ g.

Question: What about the Body weight [2, 13] of the same molecule?
Answer: The Body weight was 277.3^▴▴ g.

Question: What about the Body weight [2, 14] of the same molecule?
Answer: The Body weight was 285.4^▴▴ g.

Question: And the Body weight [2, 15]?
Answer: The Body weight was 230.6 g.

Question: And the Body weight [2, 16]?
Answer: Its Body weight is 251.8^▴▴ g.

Question: And the Body weight [2, 17]?
Answer: Its Body weight is 257.3^▴▴ g.

Question: And the Body weight [2, 18]?
Answer: Its Body weight is 264.1^▴▴ g.

Question: What about the Body weight [2, 19] of the same molecule?
Answer: The Body weight was 270.5^▴▴ g.

Question: And the Body weight [2, 20]?
Answer: Its Body weight is 281.7^▴▴ g.

Question: What about the Body weight [2, 21] of the same molecule?
Answer: Its Body weight is 290.3^▴▴ g.

Question: What about the Body weight [2, 22] of the same molecule?
Answer: Its Body weight is 302.8^▴▴ g.

Question: And the Body weight [2, 23]?
Answer: The Body weight was 315.2^▴▴ g.

Question: What about the Systolic pressure ([3]; 60 mg/kg intragastric single administration, 30 min) of the same molecule?
Answer: Its Systolic pressure is 158.36 ± 10.54 mmHg.

Question: What about the Systolic pressure ([3]; 60 mg/kg intragastric single administration, 60 min) of the same molecule?
Answer: The Systolic pressure was 154.68 ± 12.48 mmHg.

Question: What about the Systolic pressure ([3]; 60 mg/kg intragastric single administration, 90 min) of the same molecule?
Answer: The Systolic pressure was 152.74 ± 12.58 mmHg.

Question: What about the Systolic pressure ([3]; 60 mg/kg intragastric single administration, 120 min) of the same molecule?
Answer: The Systolic pressure was 152.04 ± 10.02 mmHg.

Question: What about the Systolic pressure ([3]; 60 mg/kg intragastric single administration, before administration) of the same molecule?
Answer: The Systolic pressure was 165.68 ± 16.35 mmHg.

Question: And the Systolic pressure ([3]; 120 mg/kg intragastric single administration, 30 min)?
Answer: The Systolic pressure was 148.01 ± 5.98 mmHg.

Question: What about the Systolic pressure ([3]; 120 mg/kg intragastric single administration, 60 min) of the same molecule?
Answer: The Systolic pressure was 151.36 ± 9.45 mmHg.

Question: What about the Systolic pressure ([3]; 120 mg/kg intragastric single administration, 90 min) of the same molecule?
Answer: The Systolic pressure was 152.95 ± 12.54 mmHg.

Question: What about the Systolic pressure ([3]; 120 mg/kg intragastric single administration, 120 min) of the same molecule?
Answer: Its Systolic pressure is 151.98 ± 9.26 mmHg.

Question: And the Systolic pressure ([3]; 120 mg/kg intragastric single administration, before administration)?
Answer: The Systolic pressure was 164.25 ± 11.69 mmHg.

Question: And the Systolic pressure ([4]; 60 mg/kg/d intragastric continuous, 1 d, 30 min after administration)?
Answer: The Systolic pressure was 154.08 ± 11.54 mmHg.

Question: And the Systolic pressure ([4]; 60 mg/kg/d intragastric continuous, 7 d, 30 min after administration)?
Answer: The Systolic pressure was 156.92 ± 9.82 mmHg.

Question: And the Systolic pressure ([4]; 60 mg/kg/d intragastric continuous, 13 d, 30 min after administration)?
Answer: The Systolic pressure was 156.07 ± 8.52 mmHg.

Question: And the Systolic pressure ([4]; 60 mg/kg/d intragastric continuous, 19 d, 30 min after administration)?
Answer: Its Systolic pressure is 153.96 ± 11.07 mmHg.

Question: And the Systolic pressure ([4]; 60 mg/kg/d intragastric continuous, 25 d, 30 min after administration)?
Answer: The Systolic pressure was 154.57 ± 9.74 mmHg.

Question: What about the Systolic pressure ([4]; 60 mg/kg/d intragastric continuous, 35 d, 30 min after administration) of the same molecule?
Answer: The Systolic pressure was 153.67 ± 11.58 mmHg.

Question: What about the Systolic pressure ([4]; 60 mg/kg/d intragastric continuous, 49 d, 30 min after administration) of the same molecule?
Answer: The Systolic pressure was 149.68 ± 10.42 mmHg.

Question: And the Systolic pressure ([4]; 60 mg/kg/d intragastric continuous, 56 d, 30 min after administration)?
Answer: The Systolic pressure was 153.62 ± 9.47 mmHg.

Question: And the Systolic pressure ([4]; 60 mg/kg/d intragastric continuous, before administration)?
Answer: Its Systolic pressure is 165.68 ± 16.35 mmHg.

Question: And the Systolic pressure ([4]; 120 mg/kg/d intragastric continuous, 1 d, 30 min after administration)?
Answer: Its Systolic pressure is 153.56 ± 8.15 mmHg.

Question: And the Systolic pressure ([4]; 120 mg/kg/d intragastric continuous, 7 d, 30 min after administration)?
Answer: The Systolic pressure was 152.74 ± 10.25 mmHg.

Question: What about the Systolic pressure ([4]; 120 mg/kg/d intragastric continuous, 13 d, 30 min after administration) of the same molecule?
Answer: Its Systolic pressure is 149.52 ± 10.24 mmHg.

Question: And the Systolic pressure ([4]; 120 mg/kg/d intragastric continuous, 19 d, 30 min after administration)?
Answer: The Systolic pressure was 149.05 ± 11.09 mmHg.

Question: What about the Systolic pressure ([4]; 120 mg/kg/d intragastric continuous, 25 d, 30 min after administration) of the same molecule?
Answer: Its Systolic pressure is 147.09 ± 12.68 mmHg.

Question: What about the Systolic pressure ([4]; 120 mg/kg/d intragastric continuous, 35 d, 30 min after administration) of the same molecule?
Answer: The Systolic pressure was 147.52 ± 10.64 mmHg.

Question: And the Systolic pressure ([4]; 120 mg/kg/d intragastric continuous, 49 d, 30 min after administration)?
Answer: Its Systolic pressure is 150.94 ± 11.06 mmHg.

Question: What about the Systolic pressure ([4]; 120 mg/kg/d intragastric continuous, 56 d, 30 min after administration) of the same molecule?
Answer: Its Systolic pressure is 149.76 ± 12.63 mmHg.

Question: And the Systolic pressure ([4]; 120 mg/kg/d intragastric continuous, before administration)?
Answer: Its Systolic pressure is 164.25 ± 11.69 mmHg.

Question: And the solubility [5]?
Answer: Its solubility is 200 µg/mL (≈ 280 µM).
